# Results reported in paper PMC7316778 (Nature Communications, 2020).
# Values joined by “and” are separate entries in the source; they are usually repeats but may differ in a detail not shown here. Equal entries are not always repeated. Where two headings read alike, the source gives them in different places.
# Experiments:
# [1] = target: MAPK1 (ERK2) (Homo sapiens, UniProt P28482); test: SelectScreen kinase assay
# Experimental: (§1) Selectivity profiling assays were performed by the Invitrogen SelectScreen™ Services. […] The concentration of ATP was selected to be equal to the KM, unless indicated otherwise.
# [2] = target: WNK3 (Homo sapiens, UniProt Q9BYP7); test: SelectScreen kinase assay
# Experimental: as §1
# [3] = target: CDK1/cyclin B (Homo sapiens, UniProt P06493); test: SelectScreen kinase assay; conditions: 1 h, 1 μM WEL028, 1 h preincubation
# Experimental: as §1
# [4] = target: IKBKB (IKK beta) (Homo sapiens, UniProt O14920); test: SelectScreen kinase assay
# Experimental: as §1
# [5] = target: NLK (Homo sapiens, UniProt Q9UBE8); test: SelectScreen kinase assay
# Experimental: as §1
# [6] = target: CSNK1A1 (CK1 alpha 1) (Homo sapiens, UniProt P48729); test: SelectScreen kinase assay
# Experimental: as §1
# [7] = target: SIK3 (Homo sapiens, UniProt Q9Y2K2); test: SelectScreen kinase assay
# Experimental: as §1
# [8] = system: FES^S700C HL-60 cells; test: Morphological inspection after PMA-induced differentiation; assay type: cell-based, human
# Experimental: One day prior to induction of differentiation, cells were diluted to 0.4 × 10^6 cells/mL. […] Neutrophil differentiation was induced by addition of all-trans-retinoic acid (1 µM) and dimethylsulfoxide (1.25%) for 72–96 h. For morphological inspection, images were taken on an EVOS FL Auto 2 Imaging System (Thermo Fisher) at ×20 magnification.
# Supplementary Figure 10. Analysis of putative sgRNA off-target site. Analysis of the only predicted coding off-target of the sgRNA target sequence employed for FESS700C mutagenesis, located in the TTC16 gene. Genomic region surrounding putative off-target site was amplified by PCR, followed by Sanger sequencing analysis. No off-target gene editing events were observed.
# Supplementary Figure 11. Morphological inspection of WT and FESS700C HL-60 cells after PMA-induced differentiation towards macrophages. Cells were treated with vehicle or indicated concentrations of WEL028 during PMA-induced differentiation toward macrophages. Wild-type and […]
# are representative for multiple acquired images at 20x magnification from replicates (n = 3).
# (also on this page, place not known: off -target off -target FES S700C PMA -induced W ild-type PAM Predicted TTC16 (NM_144965) HL-60 WT HL-60 125 μm Non-differentiated PMA (16 nM, 48 h) HL-60 WTHL-60 FESS700C Vehicle Vehicle WEL028 (100 nM) WEL028 (1 µM))
# [9] = target: NTRK1 (TRKA) (Homo sapiens, UniProt P04629); test: SelectScreen kinase assay
# Experimental: as §1
# [10] = target: TAOK2 (TAO1) (Homo sapiens, UniProt Q9UL54); test: SelectScreen kinase assay
# Experimental: as §1
# [11] = target: MAP2K1 (MEK1) (Homo sapiens, UniProt Q02750); test: SelectScreen kinase assay
# Experimental: as §1
# [12] = target: SPHK2 (Homo sapiens, UniProt Q9NRA0); test: SelectScreen kinase assay
# Experimental: as §1
# [13] = target: DYRK1A (Homo sapiens, UniProt Q13627); test: SelectScreen kinase assay; conditions: for Inhibition at 1 µM (%): DYRK1A, ZLYTE, ATP Km app
# Experimental: as §1
# [14] = target: WNK1 (Homo sapiens, UniProt Q9H4A3); test: SelectScreen kinase assay
# Experimental: as §1
# [15] = target: CAMK2B (CaMKII beta) (Homo sapiens, UniProt Q13554); test: SelectScreen kinase assay
# Experimental: as §1
# [16] = target: T1, AURKC (Aurora C) (Homo sapiens, UniProt Q9UQB9); test: SelectScreen kinase assay
# T1 sequence (Q9UQB9 1-309): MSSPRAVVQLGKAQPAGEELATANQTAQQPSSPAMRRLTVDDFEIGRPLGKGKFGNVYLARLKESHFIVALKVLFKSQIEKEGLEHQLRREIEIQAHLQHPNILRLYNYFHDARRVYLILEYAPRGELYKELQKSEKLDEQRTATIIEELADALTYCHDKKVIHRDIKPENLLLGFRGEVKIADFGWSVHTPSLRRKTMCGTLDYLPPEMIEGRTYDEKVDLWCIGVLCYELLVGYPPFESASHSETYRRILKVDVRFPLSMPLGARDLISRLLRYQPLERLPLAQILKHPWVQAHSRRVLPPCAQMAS
# Experimental: as §1
# [17] = target: GRK7 (Homo sapiens, UniProt Q8WTQ7); test: SelectScreen kinase assay; conditions: 1 h, 1 μM WEL028, 1 h preincubation
# Experimental: as §1
# [18] = target: PHKG1 (Homo sapiens, UniProt Q16816); test: SelectScreen kinase assay; conditions: 1 h, 1 μM WEL028, 1 h preincubation
# Experimental: as §1
# [19] = read-out: Inhibition at 1 µM (%)
# [20] = 1 µM, LanthaScreen Binding, listed as WEL028, 1 µM
# [21] = 1 h, 1 μM WEL028, 1 h preincubation
# Chain of CAMK2B (CaMKII beta) (Q13554 whole entry): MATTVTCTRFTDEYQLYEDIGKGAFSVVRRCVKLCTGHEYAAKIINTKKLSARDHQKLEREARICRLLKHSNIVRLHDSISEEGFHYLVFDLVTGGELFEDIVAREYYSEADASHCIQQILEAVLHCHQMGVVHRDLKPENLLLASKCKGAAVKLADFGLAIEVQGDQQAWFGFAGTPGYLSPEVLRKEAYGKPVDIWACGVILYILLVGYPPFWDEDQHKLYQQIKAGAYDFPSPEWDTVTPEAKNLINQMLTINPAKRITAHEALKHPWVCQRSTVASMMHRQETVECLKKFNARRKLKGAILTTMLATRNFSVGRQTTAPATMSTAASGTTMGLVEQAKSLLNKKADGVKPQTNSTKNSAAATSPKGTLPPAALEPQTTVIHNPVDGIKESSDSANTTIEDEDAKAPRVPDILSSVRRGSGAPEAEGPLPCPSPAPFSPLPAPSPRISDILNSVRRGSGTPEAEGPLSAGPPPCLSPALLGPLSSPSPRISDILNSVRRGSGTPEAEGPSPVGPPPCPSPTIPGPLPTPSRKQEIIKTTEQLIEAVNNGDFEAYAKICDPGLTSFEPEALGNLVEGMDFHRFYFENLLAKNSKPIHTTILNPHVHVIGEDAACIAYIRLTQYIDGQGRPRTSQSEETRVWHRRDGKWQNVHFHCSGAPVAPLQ
# Chain of SPHK2 (Q9NRA0 whole entry): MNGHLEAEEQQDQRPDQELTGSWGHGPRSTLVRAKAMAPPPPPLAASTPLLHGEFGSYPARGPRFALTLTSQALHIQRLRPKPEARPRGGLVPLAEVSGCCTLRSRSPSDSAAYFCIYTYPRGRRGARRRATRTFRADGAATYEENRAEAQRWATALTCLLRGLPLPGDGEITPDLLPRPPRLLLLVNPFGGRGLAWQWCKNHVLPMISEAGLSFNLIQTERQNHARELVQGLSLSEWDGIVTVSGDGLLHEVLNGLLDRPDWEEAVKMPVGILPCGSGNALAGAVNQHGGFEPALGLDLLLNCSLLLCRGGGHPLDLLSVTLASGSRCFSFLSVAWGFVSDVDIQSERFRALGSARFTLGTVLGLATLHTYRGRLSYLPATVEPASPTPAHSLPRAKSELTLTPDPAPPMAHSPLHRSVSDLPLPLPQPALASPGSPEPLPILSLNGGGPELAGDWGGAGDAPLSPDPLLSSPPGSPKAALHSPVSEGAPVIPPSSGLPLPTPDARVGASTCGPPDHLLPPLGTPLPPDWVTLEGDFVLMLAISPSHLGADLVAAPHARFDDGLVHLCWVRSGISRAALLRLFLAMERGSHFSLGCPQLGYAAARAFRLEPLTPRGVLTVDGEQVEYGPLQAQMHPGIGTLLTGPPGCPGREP
# Chain of TAOK2 (TAO1) (Q9UL54 whole entry): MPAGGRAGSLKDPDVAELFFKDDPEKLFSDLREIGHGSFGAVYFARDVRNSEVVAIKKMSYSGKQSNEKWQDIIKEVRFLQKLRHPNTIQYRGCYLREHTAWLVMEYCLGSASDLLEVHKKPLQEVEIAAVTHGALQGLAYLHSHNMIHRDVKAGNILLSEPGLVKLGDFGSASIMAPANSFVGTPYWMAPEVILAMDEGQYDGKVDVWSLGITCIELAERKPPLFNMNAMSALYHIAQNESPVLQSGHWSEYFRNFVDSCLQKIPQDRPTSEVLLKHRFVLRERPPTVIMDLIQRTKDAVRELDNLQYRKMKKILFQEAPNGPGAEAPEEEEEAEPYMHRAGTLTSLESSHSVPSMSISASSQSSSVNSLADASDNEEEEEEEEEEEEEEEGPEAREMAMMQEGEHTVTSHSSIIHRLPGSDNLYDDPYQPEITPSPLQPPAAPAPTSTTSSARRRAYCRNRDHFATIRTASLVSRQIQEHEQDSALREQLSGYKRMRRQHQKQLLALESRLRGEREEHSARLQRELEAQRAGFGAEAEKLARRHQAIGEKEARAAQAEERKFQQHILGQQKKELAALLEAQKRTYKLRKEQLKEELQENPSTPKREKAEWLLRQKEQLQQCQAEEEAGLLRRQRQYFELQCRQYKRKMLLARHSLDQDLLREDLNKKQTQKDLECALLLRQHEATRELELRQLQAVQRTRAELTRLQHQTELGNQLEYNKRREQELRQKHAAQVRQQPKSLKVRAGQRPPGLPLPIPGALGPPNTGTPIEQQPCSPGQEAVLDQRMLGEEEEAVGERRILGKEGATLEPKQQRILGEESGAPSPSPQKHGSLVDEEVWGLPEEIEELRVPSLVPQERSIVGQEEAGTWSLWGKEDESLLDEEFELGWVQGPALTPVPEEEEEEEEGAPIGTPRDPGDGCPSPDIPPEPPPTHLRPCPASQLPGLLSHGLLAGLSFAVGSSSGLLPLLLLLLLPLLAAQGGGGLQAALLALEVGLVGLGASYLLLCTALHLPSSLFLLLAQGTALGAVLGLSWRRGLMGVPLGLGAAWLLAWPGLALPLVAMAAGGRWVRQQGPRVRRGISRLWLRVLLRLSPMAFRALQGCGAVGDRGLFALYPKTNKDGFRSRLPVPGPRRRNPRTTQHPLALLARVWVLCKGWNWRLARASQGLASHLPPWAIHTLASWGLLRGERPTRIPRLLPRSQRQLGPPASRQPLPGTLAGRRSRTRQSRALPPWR
# Chain of SIK3 (Q9Y2K2 whole entry): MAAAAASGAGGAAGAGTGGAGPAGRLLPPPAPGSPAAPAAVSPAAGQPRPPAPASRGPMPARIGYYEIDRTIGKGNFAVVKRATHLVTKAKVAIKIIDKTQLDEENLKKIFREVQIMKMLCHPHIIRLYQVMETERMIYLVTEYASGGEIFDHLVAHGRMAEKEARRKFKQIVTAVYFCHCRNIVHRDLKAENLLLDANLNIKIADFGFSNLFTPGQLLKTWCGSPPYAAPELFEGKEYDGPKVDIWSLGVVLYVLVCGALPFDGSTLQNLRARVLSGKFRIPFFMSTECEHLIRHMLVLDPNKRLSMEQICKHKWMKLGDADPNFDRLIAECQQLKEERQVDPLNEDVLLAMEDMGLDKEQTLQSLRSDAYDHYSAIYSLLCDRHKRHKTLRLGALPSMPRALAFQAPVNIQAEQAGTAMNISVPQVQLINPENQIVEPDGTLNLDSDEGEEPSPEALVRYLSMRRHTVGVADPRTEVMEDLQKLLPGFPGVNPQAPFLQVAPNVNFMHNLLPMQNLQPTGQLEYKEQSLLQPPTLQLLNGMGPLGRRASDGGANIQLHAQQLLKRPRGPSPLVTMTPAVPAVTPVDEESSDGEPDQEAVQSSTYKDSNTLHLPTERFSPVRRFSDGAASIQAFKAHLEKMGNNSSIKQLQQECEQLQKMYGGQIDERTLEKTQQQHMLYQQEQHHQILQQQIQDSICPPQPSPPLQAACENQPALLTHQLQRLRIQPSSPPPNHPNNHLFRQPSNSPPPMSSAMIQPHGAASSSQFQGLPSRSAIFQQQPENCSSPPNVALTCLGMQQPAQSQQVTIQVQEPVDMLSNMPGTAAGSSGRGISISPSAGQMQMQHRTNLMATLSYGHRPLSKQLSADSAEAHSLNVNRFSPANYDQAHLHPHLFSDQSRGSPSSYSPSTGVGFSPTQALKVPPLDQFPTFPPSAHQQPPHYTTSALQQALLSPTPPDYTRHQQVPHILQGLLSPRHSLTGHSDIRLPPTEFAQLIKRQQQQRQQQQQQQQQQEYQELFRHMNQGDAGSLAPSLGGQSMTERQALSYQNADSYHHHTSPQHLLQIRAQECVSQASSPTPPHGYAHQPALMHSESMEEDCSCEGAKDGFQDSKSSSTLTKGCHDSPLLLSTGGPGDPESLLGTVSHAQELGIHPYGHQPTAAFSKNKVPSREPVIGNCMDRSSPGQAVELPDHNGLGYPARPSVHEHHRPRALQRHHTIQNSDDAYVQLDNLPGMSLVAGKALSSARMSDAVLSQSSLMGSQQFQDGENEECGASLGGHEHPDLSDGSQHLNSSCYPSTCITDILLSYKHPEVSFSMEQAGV
# Chain of MAP2K1 (MEK1) (Q02750 whole entry, species assumed): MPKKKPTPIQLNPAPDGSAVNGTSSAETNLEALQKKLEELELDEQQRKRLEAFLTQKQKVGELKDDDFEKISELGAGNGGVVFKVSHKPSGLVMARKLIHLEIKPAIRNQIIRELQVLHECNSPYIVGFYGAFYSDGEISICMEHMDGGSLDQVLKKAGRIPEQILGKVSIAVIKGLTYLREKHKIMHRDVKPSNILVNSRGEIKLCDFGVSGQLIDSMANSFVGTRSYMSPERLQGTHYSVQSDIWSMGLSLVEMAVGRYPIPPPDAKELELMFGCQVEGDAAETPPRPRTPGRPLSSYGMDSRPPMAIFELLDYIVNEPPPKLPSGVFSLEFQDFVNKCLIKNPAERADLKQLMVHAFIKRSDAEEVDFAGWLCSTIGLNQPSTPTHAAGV
# Chain of CSNK1A1 (CK1 alpha 1) (P48729 whole entry): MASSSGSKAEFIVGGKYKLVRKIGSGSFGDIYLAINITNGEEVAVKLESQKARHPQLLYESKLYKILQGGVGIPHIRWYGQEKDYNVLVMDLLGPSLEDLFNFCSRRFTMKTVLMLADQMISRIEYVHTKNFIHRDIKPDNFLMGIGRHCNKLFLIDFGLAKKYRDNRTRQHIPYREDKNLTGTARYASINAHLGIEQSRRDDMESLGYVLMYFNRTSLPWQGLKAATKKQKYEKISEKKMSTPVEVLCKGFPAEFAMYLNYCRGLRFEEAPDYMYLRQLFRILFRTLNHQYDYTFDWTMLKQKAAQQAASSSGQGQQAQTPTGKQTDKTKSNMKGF
# Chain of MAPK1 (ERK2) (P28482 whole entry): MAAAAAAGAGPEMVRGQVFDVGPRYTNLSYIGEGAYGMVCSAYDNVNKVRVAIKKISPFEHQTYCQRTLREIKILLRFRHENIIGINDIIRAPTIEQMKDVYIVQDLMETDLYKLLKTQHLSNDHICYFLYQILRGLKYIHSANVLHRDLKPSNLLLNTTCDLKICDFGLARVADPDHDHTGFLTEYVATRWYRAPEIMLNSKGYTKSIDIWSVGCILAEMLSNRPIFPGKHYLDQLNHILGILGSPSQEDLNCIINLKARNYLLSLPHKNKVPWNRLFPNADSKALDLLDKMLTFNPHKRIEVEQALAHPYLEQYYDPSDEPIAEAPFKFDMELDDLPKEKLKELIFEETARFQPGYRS
structure (smiles),measurement,setting,value
C#CCOc1ccc(Nc2ncc(Cl)c(Nc3ccccc3NC(=O)C=C)n2)c(OC)c1 [Compound 6],inhibition at 1 µM,[1]; 1 h,26%
same,inhibition at 1 µM,[1]; [19],26%
same,Inhibition at 1 µM (%),[2]; [20],5% and 1%
same,inhibition at 1 µM,[2]; [21],3%
same,inhibition at 1 µM,[3],1%
same,inhibition at 1 µM,[4]; 1 h,1%
same,inhibition at 1 µM,[4]; [19],1%
same,inhibition at 1 µM,[5]; [21],3%
same,inhibition at 1 µM,"[5]; read-out: Inhibition at 1 µM (%), NLK, 1 µM, LanthaScreen Binding",4%
same,inhibition at 1 µM,[6]; [21],9%
same,Inhibition at 1 µM (%),"[6]; CSNK1A1 (CK1 alpha 1), 1 µM, ZLYTE, ATP Km app, listed as WEL028, 1 µM",12%
same,inhibition at 1 µM,"[6]; read-out: Inhibition at 1 µM (%), CSNK1A1 (CK1 alpha 1), 1 µM, ZLYTE, ATP Km app",6%
same,Inhibition (%),"[7]; 1 μM WEL028, 1 h preincubation",2%
same,Inhibition at 1 µM (%),[7]; [20],0% and 5%
same,Morphology,[8]; 100 nM WEL028,macrophage morphology
same,Morphology,[8]; 1 µM WEL028,morphology is similar to non-differentiated cells
same,inhibition at 1 µM,[9]; [21],17%
same,Inhibition at 1 µM (%),"[9]; NTRK1 (TRKA), 1 µM, ZLYTE, ATP Km app, listed as WEL028, 1 µM",16%
same,inhibition at 1 µM,"[9]; read-out: Inhibition at 1 µM (%), NTRK1 (TRKA), 1 µM, ZLYTE, ATP Km app",17%
same,Inhibition at 1 µM (%),"[10]; 1 µM, ZLYTE, ATP Km app, listed as WEL028, 1 µM",-1% and 9%
same,inhibition at 1 µM,[10]; [21],4%
same,IC50,[11],251 nM
same,inhibition at 10 µM,"[11]; 1 h, log[inhibitor] (M) -5.00, ZLYTE, ATP 100",110%
same,inhibition at 3.311 µM,"[11]; 1 h, log[inhibitor] (M) -5.48, ZLYTE, ATP 100",106%
same,inhibition at 1.122 µM,"[11]; 1 h, log[inhibitor] (M) -5.95, ZLYTE, ATP 100",106%
same,inhibition at 0.3715 µM,"[11]; 1 h, log[inhibitor] (M) -6.43, ZLYTE, ATP 100",78%
same,inhibition at 0.123 µM,"[11]; 1 h, log[inhibitor] (M) -6.91, ZLYTE, ATP 100",44%
same,inhibition at 0.04074 µM,"[11]; 1 h, log[inhibitor] (M) -7.39, ZLYTE, ATP 100",29%
same,inhibition at 0.0138 µM,"[11]; 1 h, log[inhibitor] (M) -7.86, ZLYTE, ATP 100",40%
same,inhibition at 0.001514 µM,"[11]; 1 h, log[inhibitor] (M) -8.82, ZLYTE, ATP 100",19%
same,inhibition at 0.0004898 µM,"[11]; 1 h, log[inhibitor] (M) -9.31, ZLYTE, ATP 100",18%
same,inhibition at 0.004571 µM,"[11]; 1 h, log[inhibitor] (M) -[…], ZLYTE, ATP 100",27%
same,Apparent fold selectivity,[11]; IC50 on that kinase divided by IC50 on FES^S700C,60 fold
same,Inhibition at 1 µM (%),"[11]; MAP2K1 (MEK1), 1 µM, ZLYTE, ATP 100, listed as WEL028, 1 µM",108%
same,inhibition at 1 µM,"[11]; read-out: Inhibition at 1 µM (%), MAP2K1 (MEK1), 1 µM, ZLYTE, ATP 100",113%
same,Inhibition at 1 µM (%),"[12]; 1 µM, Adapta, ATP 10, listed as WEL028, 1 µM",5% and 1%
same,inhibition at 1 µM,[12]; [21],3%
same,inhibition at 1 µM,[13]; [21],1%
same,Inhibition at 1 µM (%),[13],3%
same,Inhibition at 1 µM (%),"[13]; listed as WEL028, 1 µM",0%
same,Inhibition (%),"[14]; 1 μM WEL028, 1 h preincubation",5%
same,Inhibition at 1 µM (%),"[14]; 1 µM, LanthaScreen Binding",11%
same,inhibition at 1 µM,[15]; [21],0%
same,Inhibition at 1 µM (%),"[15]; CAMK2B (CaMKII beta), 1 µM, ZLYTE, ATP Km app, listed as WEL028, 1 µM",-1% and 1%
same,inhibition at 1 µM,[16]; [21],37%
same,Inhibition at 1 µM (%),"[16]; AURKC (Aurora C), 1 µM, ZLYTE, ATP Km app, listed as WEL028, 1 µM",41%
same,inhibition at 1 µM,"[16]; read-out: Inhibition at 1 µM (%), AURKC (Aurora C), 1 µM, ZLYTE, ATP Km app",33%
same,inhibition at 1 µM,[17],11%
same,inhibition at 1 µM,[18],-2%
